Values quoted from earlier work as cited in US11980701B2, “Joint implant with constant and continuous release of therapeutic agent” (Diffusion RX, Inc., priority 2021, dated 2024).

Columns and labels:
cartilage = settings: at low doses
[1] = tested on: articular joint pain/inflammation; settings: known treatments

C[C@]12C=CC(=O)C=C1CC[C@H]1[C@@H]3C[C@@H](O)[C@](O)(C(=O)CO)[C@@]3(C)C[C@H](O)[C@@]12F [triamcinolone]
cartilage effect in in vivo studies (cartilage): significant cartilage protection

C[C@]12CCC(=O)C=C1CC[C@@H]1[C@@H]2[C@@H](O)C[C@@]2(C)[C@H]1CC[C@]2(O)C(=O)CO [hydrocortisone]
cartilage effect in in vivo studies (cartilage): significant cartilage protection

C[C@]12CCC(=O)C=C1CC[C@@H]1[C@@H]2C(=O)C[C@@]2(C)[C@H]1CC[C@]2(O)C(=O)CO [cortisone shot, cortisone]
length of effectiveness (FIG. 5A) [1]: six to twelve
